Broadly, the Ki is a measure of affinity in units of concentration, obtained from inhibition or displacement.

Read-outs that look alike come from different tables or passages of the source.

Among the data in US20070203183A1, “Diaryl piperidines as CB1 modulators” (Schering Corporation, priority 2006, published 2007) are Ki values, retold here.

The target in the assay is T1, cannabinoid CB1 (Homo sapiens, UniProt P21554).
T1 construct: purchased
In words: Competition binding assay for cannabinoid CB1 affinity (3H-CP55,940 displacement, membranes). The protocol: Method for Evaluating Cannabinoid CB1 and CB2 Affinity
Non-specific binding was defined in the presence of 10 μM CP55,940. For saturation studies, concentrations of ^3H-CP55,940 ranging from 0.1-5 nM were incubated with membranes in the presence and absence of 10 μM CP55,940. Assays were terminated after incubation for 1½ hours by rapid filtration onto 0.3% polyethylenamine treated GF/C filterplates using a BRANDEL cell harvester. The plates were dried and MICROSCINT scintillation cocktail was added, after which the bound radioactivity was quantified using a TOPCOUNT scintillation counter.
The dissociation constant (Kd) of ^3H-CP55,940 at the CB1 and CB2 receptor were determined by plotting specific binding at each concentration of radioligand, and analysis by non-linear regression. For competition studies, the concentration of each drug that inhibited 50 percent of ^3H-CP55,940 binding (IC50) was determined by non-linear regression analysis of the radioligand displacement curves.

Where [1] appears, read: competition with 0.5 nM 3H-CP55,940, Ki by Cheng-Prusoff, approximate values, receptor subtype not given, read-out: Ki values.

T1 sequence (P21554 whole entry): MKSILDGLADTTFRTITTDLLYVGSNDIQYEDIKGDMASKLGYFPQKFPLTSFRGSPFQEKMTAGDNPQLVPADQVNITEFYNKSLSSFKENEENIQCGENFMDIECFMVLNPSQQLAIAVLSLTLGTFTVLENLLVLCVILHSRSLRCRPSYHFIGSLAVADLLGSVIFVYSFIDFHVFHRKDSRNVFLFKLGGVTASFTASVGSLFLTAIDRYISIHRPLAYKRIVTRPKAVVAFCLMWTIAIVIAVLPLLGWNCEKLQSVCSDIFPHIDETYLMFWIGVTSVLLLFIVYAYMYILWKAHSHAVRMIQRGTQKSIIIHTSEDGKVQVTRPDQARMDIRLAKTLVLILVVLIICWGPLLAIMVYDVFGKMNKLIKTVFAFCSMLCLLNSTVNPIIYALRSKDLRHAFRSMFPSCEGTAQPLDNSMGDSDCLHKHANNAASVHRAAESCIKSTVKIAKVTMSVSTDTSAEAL

As for `O=S(=O)(NC[C@@H]1CC[C@@H](c2ccc(Cl)cc2Cl)N(c2ccc(Cl)cc2)C1)c1ccccc1` [Example 86], the Ki under setting [1] was around 9 nM.
For the compound `O=S(=O)(NC[C@@H]1CC[C@@H](c2ccc(Cl)cc2Cl)N(c2ccc(Cl)cc2)C1)c1cc(F)ccc1F` [Example 112], the Ki under setting [1] was around 2 nM.
In the case of `O=S(=O)(NC[C@@H]1CC[C@@H](c2ccc(Cl)cc2Cl)N(c2ccc(Cl)cc2)C1)c1cccc(Cl)c1` [Example 120], under setting [1], the Ki is around 2 nM.
Turning to `N#Cc1ccc(C(=O)NC[C@@H]2CC[C@@H](c3ccc(Cl)cc3Cl)N(c3ccc(Cl)cc3)C2)cc1` [Example 91], the Ki is around 4 nM.
